In ChEMBL document CHEMBL1201862, “PubChem BioAssay data set” (2004):
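These data come from cells grown in 96-well plates and exposed to compound for 48 hours at five concentrations. Abbreviation: GI50, concentration required for 50% inhibition of growth.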 Calls of active or inactive are those of the source. Cut-off read from the data, not from the text of the source: active = GI50 up to about 1.1 µM and inactive = higher.

Assays:
Assay in all cases: NCI anticancer screen, dose series, 48 h
[1] = system: A498
[2] = system: OVCAR-8
[3] = system: SR
[4] = system: NCI/ADR-RES
[5] = system: MDA-MB-231
[6] = system: HCT-15
[7] = system: SK-MEL-2
[8] = system: UACC-62
[9] = system: U-251
[10] = system: SW-620
[11] = system: SNB-19
[12] = system: Malme-3M
[13] = system: TK-10
[14] = system: OVCAR-5
[15] = system: COLO 205
[16] = system: SK-MEL-5
[17] = system: OVCAR-4
[18] = system: ACHN
[19] = system: K562
[20] = system: UACC-257

| Structure (SMILES) | GI50 [1] | GI50 [2] | GI50 [3] | GI50 [4] | GI50 [5] | GI50 [6] [µM] | GI50 [7] | GI50 [8] | GI50 [9] | GI50 [10] | GI50 [11] | GI50 [12] | GI50 [13] | GI50 [14] | GI50 [15] | GI50 [16] | GI50 [17] | GI50 [18] | GI50 [19] | GI50 [20] |
| --- | --- | --- | --- | --- | --- | --- | --- | --- | --- | --- | --- | --- | --- | --- | --- | --- | --- | --- | --- | --- |
| CCN(CC)Cc1ccc2cccnc2c1O | 16.3 µM (inactive) | 2.03 µM (inactive) | 0.995 µM (active) | 0.358 µM (active) | 5.53 µM (inactive) | 0.365 | 20.1 µM (inactive) | 5.92 µM (inactive) | 4.47 µM (inactive) | 3.3 µM (inactive) | 18.5 µM (inactive) | 2.81 µM (inactive) | 9.64 µM (inactive) | 10.3 µM (inactive) | 15.7 µM (inactive) | 3.54 µM (inactive) | 16.4 µM (inactive) | 2.33 µM (inactive) | 2.15 µM (inactive) | 4.91 µM (inactive) |
| CC1CCC(O)/C=C/C(=O)OC(C)C(O)/C=C/C(=O)O1 (stereo not given) | > 100 µM (inactive) | > 100 µM (inactive) | 51.5 µM (inactive) | > 100 µM (inactive) | > 100 µM (inactive) | > 94 | > 100 µM (inactive) | > 100 µM (inactive) | > 100 µM (inactive) | 60.4 µM (inactive) | > 100 µM (inactive) | > 100 µM (inactive) | > 83.8 µM (inactive) | > 100 µM (inactive) | 64 µM (inactive) | > 100 µM (inactive) | > 100 µM (inactive) | > 68.4 µM (inactive) | 41.9 µM (inactive) | > 100 µM (inactive) |
